Measurements taken from PMC11122421 (Marine Drugs, 2024).
Where a SMILES comes first, the peptide text is derived from it. Bridges are numbered along the chain shown (N, C = ends).

What was measured:
rat α3β2 nAChR = target: T1, rat α3β2 nAChR (Rattus norvegicus, UniProt P04757+P12390); assay: cell-based
T1 construct: expressed in transfected cells; host or cells: Xenopus laevis oocytes injected with cRNA; plasmids from J. Michael McIntosh (University of Utah)

rat α7 nAChRs = target: T2, rat α7 nAChRs (Rattus norvegicus, UniProt Q05941); assay: cell-based; assay type: cell-based
T2 construct: expressed in transfected cells; host or cells: Xenopus laevis oocytes injected with cRNA; plasmids from J. Michael McIntosh (University of Utah)
T2 sequence (Q05941 23-502): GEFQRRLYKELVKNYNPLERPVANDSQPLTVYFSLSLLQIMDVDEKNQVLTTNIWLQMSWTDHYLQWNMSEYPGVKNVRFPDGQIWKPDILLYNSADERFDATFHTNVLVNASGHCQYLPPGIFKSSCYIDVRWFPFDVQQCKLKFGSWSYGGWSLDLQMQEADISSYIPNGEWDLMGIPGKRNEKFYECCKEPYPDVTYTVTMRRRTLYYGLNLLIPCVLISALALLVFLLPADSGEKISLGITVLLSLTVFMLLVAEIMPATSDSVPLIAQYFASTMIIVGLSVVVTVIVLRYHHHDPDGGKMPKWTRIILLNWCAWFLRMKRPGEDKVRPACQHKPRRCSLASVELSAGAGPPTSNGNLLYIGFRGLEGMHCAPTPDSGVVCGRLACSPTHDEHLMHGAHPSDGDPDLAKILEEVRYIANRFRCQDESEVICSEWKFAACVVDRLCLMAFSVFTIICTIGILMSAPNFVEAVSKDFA

rat α6/α3β4 nAChRs = target: T3, rat α6/α3β4 nAChRs (Rattus norvegicus, UniProt P04757+P12392+P43143); assay type: cell-based
T3 construct: expressed in transfected cells; host or cells: Xenopus laevis oocytes injected with cRNA; plasmids from J. Michael McIntosh (University of Utah)
T3 sequence (P43143+P04757 fused with the stated changes): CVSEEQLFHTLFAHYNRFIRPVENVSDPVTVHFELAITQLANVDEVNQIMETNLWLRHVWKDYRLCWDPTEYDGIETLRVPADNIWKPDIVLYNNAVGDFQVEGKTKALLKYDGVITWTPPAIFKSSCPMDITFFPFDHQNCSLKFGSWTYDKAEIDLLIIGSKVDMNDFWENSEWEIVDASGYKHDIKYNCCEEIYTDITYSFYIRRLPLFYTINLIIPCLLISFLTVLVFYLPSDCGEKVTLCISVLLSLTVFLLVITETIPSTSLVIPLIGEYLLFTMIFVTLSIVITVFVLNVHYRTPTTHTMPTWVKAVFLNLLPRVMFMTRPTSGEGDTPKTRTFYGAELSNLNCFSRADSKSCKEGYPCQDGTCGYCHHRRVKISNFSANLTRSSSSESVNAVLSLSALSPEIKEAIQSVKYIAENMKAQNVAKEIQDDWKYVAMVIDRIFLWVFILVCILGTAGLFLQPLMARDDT
T3 sequence (P12392 21-495): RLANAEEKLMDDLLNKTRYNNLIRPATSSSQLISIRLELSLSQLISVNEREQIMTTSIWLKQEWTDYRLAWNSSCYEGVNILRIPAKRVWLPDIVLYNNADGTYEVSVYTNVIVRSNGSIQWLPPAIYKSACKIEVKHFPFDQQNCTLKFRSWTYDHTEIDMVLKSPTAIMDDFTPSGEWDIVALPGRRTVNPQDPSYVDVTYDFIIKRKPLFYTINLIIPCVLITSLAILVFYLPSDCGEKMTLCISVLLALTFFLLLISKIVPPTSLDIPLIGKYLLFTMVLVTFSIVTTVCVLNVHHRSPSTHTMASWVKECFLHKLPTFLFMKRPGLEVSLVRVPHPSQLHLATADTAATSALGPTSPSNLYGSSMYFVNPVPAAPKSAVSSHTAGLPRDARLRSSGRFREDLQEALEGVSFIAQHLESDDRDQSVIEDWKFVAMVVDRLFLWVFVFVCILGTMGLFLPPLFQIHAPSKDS

T1 sequence (P04757 26-499 limits assumed): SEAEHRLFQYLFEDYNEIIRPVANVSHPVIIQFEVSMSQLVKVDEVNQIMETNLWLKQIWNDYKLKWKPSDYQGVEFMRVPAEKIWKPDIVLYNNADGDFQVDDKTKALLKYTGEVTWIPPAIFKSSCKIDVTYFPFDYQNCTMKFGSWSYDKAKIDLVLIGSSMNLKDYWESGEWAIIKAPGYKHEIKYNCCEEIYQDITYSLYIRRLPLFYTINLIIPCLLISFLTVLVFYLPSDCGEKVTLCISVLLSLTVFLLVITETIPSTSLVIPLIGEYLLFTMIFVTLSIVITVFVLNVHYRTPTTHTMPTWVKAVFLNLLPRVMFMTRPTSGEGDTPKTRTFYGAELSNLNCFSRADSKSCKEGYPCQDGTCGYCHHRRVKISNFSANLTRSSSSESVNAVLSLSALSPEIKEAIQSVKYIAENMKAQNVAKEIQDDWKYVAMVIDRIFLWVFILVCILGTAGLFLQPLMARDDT
T1 sequence (P12390 25-500 limits assumed): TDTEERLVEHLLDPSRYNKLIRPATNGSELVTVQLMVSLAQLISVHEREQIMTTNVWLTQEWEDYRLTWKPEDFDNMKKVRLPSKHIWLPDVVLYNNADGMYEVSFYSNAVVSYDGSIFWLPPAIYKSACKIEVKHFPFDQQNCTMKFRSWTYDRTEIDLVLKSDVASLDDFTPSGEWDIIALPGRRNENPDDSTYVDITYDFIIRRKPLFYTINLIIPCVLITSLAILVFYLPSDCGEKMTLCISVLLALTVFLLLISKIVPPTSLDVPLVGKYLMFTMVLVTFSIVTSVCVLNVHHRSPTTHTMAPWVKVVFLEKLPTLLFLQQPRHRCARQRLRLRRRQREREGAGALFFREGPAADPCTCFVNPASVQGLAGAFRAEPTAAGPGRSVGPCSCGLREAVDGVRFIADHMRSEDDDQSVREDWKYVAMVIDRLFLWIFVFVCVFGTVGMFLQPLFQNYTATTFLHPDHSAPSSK

C[C@@H]1NC(=O)[C@@H]2CSSC[C@H](NC(=O)CN)C(=O)N[C@@H](CSSC[C@@H](C(N)=O)NC(=O)[C@H](Cc3c[nH]cn3)NC(=O)[C@H](CCC(=O)O)NC(=O)[C@H](Cc3c[nH]cn3)NC1=O)C(=O)N[C@@H](CO)C(=O)N[C@@H](CC(N)=O)C(=O)N1CCC[C@H]1C(=O)N1CCC[C@H]1C(=O)N2 [[Q1G, ΔR14]LvIB] (H-GCCSNPPCAHEHC-NH2; disulfide 2-8, 3-13)
inhibition rate (rat α3β2 nAChR): 97 ± 2%
Hill Slope (rat α7 nAChRs): 0.99 (0.8–1.19)
inhibition rate of ACh-evoked current (rat α7 nAChRs): 98 ± 0.12%
time to ~90% current restoration after block (recovery/washout) (rat α7 nAChRs): ≤ 17 min
inhibition rate (rat α6/α3β4 nAChRs): 88 ± 5%
